# From patent US5700679A, “Lipid vesicles having a bilayer containing a surfactant with anti-viral and spermicidal activity” (priority 1996, dated 1997)
# Key:
# [1] = system: spermatozoa (human semen); experiment: Sander-Cramer Spermicidal Assay; type: cell-based; settings: highest dilution that immobilizes spermatozoa in less than 20 seconds; NP9 concentration 10 mg/mL in DMSO
# Experimental: In this Example, the preparation of Example 1 was tested for spermicidal activity using the Sander-Cramer spermicidal assay. A series of dilutions of the test compound are prepared using 0.9% saline. 1 mL of test article is mixed with 0.2 mL of human semen in a […] by drawing the mixture into a pipet and forcibly expressing the mixture. This procedure is repeated 6 times. A hanging drop of the mixture is prepared and five fields are observed under low power magnification. The whole process from mixing to microscopic observation must be accomplished in less than 20 seconds. The end point is the highest dilution that immobilizes spermatozoa in less than 20 seconds.
# spermatozoa = settings: cited from earlier work
substance,measurement,setting,value
poly(ethylene glycol) p-nonylphenyl ether [NP9 Control],Highest Spermicidal Dilution,[1],91
polyethylene glycol p-isooctylphenyl ether [TRITON-X],spermicidal properties (in words),spermatozoa,some spermicidal properties
